In ChEMBL document CHEMBL1201862, “PubChem BioAssay data set” (2004):
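1) Cells in 96-well plates. 2) Compound, 48 h, 5 concentrations. 3) Linear interpolation between surrounding doses. 4) Unreached endpoint = highest concentration. At the GI50, growth is halved.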 Activity calls are given as the source filed them. No stated cut-off is given here; in the data, active = GI50 up to about 1.1 µM and inactive = higher.

Tests used:
Assay in all cases: inhibition of tumour cell growth, NCI panel, 48 h
SF-268 = system: SF-268
DU-145 = system: DU-145
UACC-257 = system: UACC-257
A549 = system: A549
TK-10 = system: TK-10
HL-60 = system: HL-60
BT-549 = system: BT-549
K562 = system: K562
IGROV-1 = system: IGROV-1
HCT-15 = system: HCT-15
A498 = system: A498
MDA-MB-231 = system: MDA-MB-231
NCI-H23 = system: NCI-H23
U-251 = system: U-251
SNB-75 = system: SNB-75
M14 = system: M14
Malme-3M = system: Malme-3M
MCF7 = system: MCF7
NCI-H460 = system: NCI-H460
CCRF-CEM = system: CCRF-CEM
SN12C = system: SN12C
SK-MEL-5 = system: SK-MEL-5
SNB-19 = system: SNB-19
NCI-H522 = system: NCI-H522
RPMI-8226 = system: RPMI-8226
SK-MEL-28 = system: SK-MEL-28
SR = system: SR
786-0 = system: 786-0
OVCAR-3 = system: OVCAR-3
T47D = system: T47D
MOLT-4 = system: MOLT-4
UO-31 = system: UO-31
ACHN = system: ACHN
HCC 2998 = system: HCC 2998
OVCAR-5 = system: OVCAR-5
HT-29 = system: HT-29
SF-539 = system: SF-539
HCT-116 = system: HCT-116
NCI-H226 = system: NCI-H226
NCI/ADR-RES = system: NCI/ADR-RES
LOX IMVI = system: LOX IMVI
SK-MEL-2 = system: SK-MEL-2
MDA-MB-435 = system: MDA-MB-435
SK-OV-3 = system: SK-OV-3
SW-620 = system: SW-620
KM12 = system: KM12
UACC-62 = system: UACC-62
MDA-N = system: MDA-N
HOP-92 = system: HOP-92
Hs-578T = system: Hs-578T
HOP-62 = system: HOP-62
EKVX = system: EKVX
OVCAR-4 = system: OVCAR-4
RXF 393 = system: RXF 393
CAKI-1 = system: CAKI-1
OVCAR-8 = system: OVCAR-8
SF-295 = system: SF-295
COLO 205 = system: COLO 205
PC-3 = system: PC-3

Measured: GI50

CC(C)(C)OC(=O)NC(CCC(=O)OCc1ccccc1)C(=O)NCCCO (configuration not stated)
inactive: SF-268 > 100 µM | DU-145 > 100 µM | UACC-257 > 100 µM | A549 > 100 µM | TK-10 > 100 µM | HL-60 > 100 µM | BT-549 > 100 µM | K562 > 100 µM | IGROV-1 > 100 µM | A498 > 100 µM | MDA-MB-231 > 100 µM | NCI-H23 > 100 µM | U-251 > 100 µM | SNB-75 > 100 µM | M14 > 100 µM | Malme-3M > 100 µM | MCF7 > 100 µM | NCI-H460 > 100 µM | CCRF-CEM > 100 µM | SN12C > 100 µM | SK-MEL-5 > 100 µM | SNB-19 > 100 µM | NCI-H522 > 100 µM | RPMI-8226 > 100 µM | SK-MEL-28 > 100 µM | SR > 100 µM | 786-0 > 100 µM | OVCAR-3 > 100 µM | T47D > 100 µM | MOLT-4 > 100 µM | UO-31 > 100 µM | ACHN > 100 µM | HCC 2998 > 100 µM | OVCAR-5 > 100 µM | HT-29 > 100 µM | SF-539 > 100 µM | HCT-116 > 100 µM | NCI-H226 > 100 µM | NCI/ADR-RES > 100 µM | LOX IMVI > 100 µM | SK-MEL-2 > 100 µM | MDA-MB-435 > 100 µM | SK-OV-3 > 100 µM | SW-620 > 100 µM | KM12 > 100 µM | UACC-62 > 100 µM | MDA-N > 100 µM | HOP-92 > 100 µM | Hs-578T > 100 µM | HOP-62 > 100 µM | EKVX > 100 µM | OVCAR-4 > 100 µM | RXF 393 > 100 µM | CAKI-1 > 100 µM | OVCAR-8 > 100 µM
> 100 µM: HCT-15

CC(=O)/C=C1\Nc2sc(C)c(C)c2C(=O)S1
inactive: SF-268 28.8 µM | DU-145 69.7 µM | UACC-257 70 µM | A549 > 100 µM | TK-10 80.4 µM | HL-60 32.1 µM | BT-549 53 µM | K562 60.4 µM | IGROV-1 29.6 µM | A498 > 100 µM | MDA-MB-231 88.3 µM | NCI-H23 35.5 µM | U-251 50.2 µM | SNB-75 24 µM | M14 97.7 µM | SF-295 48 µM | Malme-3M 30.6 µM | MCF7 29.6 µM | NCI-H460 10 µM | CCRF-CEM 21.7 µM | SN12C 84.3 µM | SK-MEL-5 41 µM | SNB-19 > 100 µM | RPMI-8226 38.6 µM | SK-MEL-28 > 100 µM | 786-0 62.8 µM | COLO 205 > 100 µM | OVCAR-3 44.1 µM | T47D 47.2 µM | MOLT-4 10 µM | UO-31 54 µM | ACHN 74.8 µM | OVCAR-5 > 100 µM | PC-3 25.4 µM | HT-29 34.1 µM | SF-539 24.5 µM | HCT-116 31.6 µM | NCI-H226 29.2 µM | NCI/ADR-RES 37.1 µM | LOX IMVI 44.6 µM | SK-MEL-2 24.2 µM | MDA-MB-435 47.3 µM | SK-OV-3 > 100 µM | SW-620 63.5 µM | KM12 29.2 µM | UACC-62 65.8 µM | MDA-N 88.3 µM | HOP-92 > 100 µM | Hs-578T 20.5 µM | HOP-62 89.7 µM | EKVX 24.9 µM | OVCAR-4 42.2 µM | RXF 393 > 100 µM | CAKI-1 65.3 µM | OVCAR-8 35.6 µM
28.9 µM: HCT-15
